Laboratory results as given in ChEMBL document CHEMBL1146733, “Effect of gabapentin derivates on mechanical allodynia-like behaviour in a rat model of chronic sciatic constriction injury” (2004).

Experiments:
[1] = test system: Rattus norvegicus; assay: Antiallodynic effect investigated in chronic sciatic nerve constriction injury rats before 1 hr of 60 mg/kg i.p. administration and value reported as paw withdrawal threshold; format: functional; conditions: route intraperitoneal
[2] = test system: Rattus norvegicus; assay: Antiallodynic effect investigated in chronic sciatic nerve constriction injury rats after 1 hr of 60 mg/kg i.p. administration and value reported as paw withdrawal threshold; format: functional; conditions: route intraperitoneal

SMILES	PWT [1] [g]	PWT [2] [g]	PWT ([1]; 60 mg/kg) [g]	PWT ([2]; 60 mg/kg) [g]
CC(C)C[C@@H](CN)CC(=O)OC(C)CCOC(=O)CC1(CN)CCCCC1.Cl.Cl (some centres not stated)	4	11.4	–	–
CC(C)C[C@@H](CN)CC(=O)OCCOC(=O)CC1(CN)CCCCC1.Cl.Cl	3.33	19	–	–
Cl.Cl.NCC1(CC(=O)OCCCCOC(=O)CC2(CN)CCCCC2)CCCCC1	4	5.6	–	–
Cl.Cl.NCC1(CC(=O)OCCCOC(=O)CC2(CN)CCCCC2)CCCCC1	4.8	19.4	–	–
CC(C)C[C@@H](CN)CC(=O)OCCCOC(=O)CC1(CN)CCCCC1.Cl.Cl	3.6	7.8	–	–
CC(C)C[C@H](CN)CC(=O)OCCCCOC(=O)C[C@H](CN)CC(C)C.Cl.Cl	4.5	8.5	–	–
CC(C)C[C@@H](CN)CC(=O)OCCCCOC(=O)CC1(CN)CCCCC1.Cl.Cl	4.17	8.56	–	–
COC(=O)CC1(CN)CCCCC1.Cl	6.4	22.8	–	–
CC(C)C[C@H](CN)CC(=O)OCCCOC(=O)C[C@H](CN)CC(C)C.Cl.Cl	6	10.33	–	–
CC(C)C[C@@H](CN)CC(=O)OCC(C)(C)COC(=O)CC1(CN)CCCCC1.Cl.Cl	4.4	7.2	–	–
CC(C)C[C@H](CN)CC(=O)OCCOC(=O)C[C@H](CN)CC(C)C.Cl.Cl	2.9	7.9	–	–
COC(=O)C[C@@H](CN)CC(C)C.Cl	5.2	6.8	–	–
Cl.Cl.NCC1(CC(=O)OCCOC(=O)CC2(CN)CCCCC2)CCCCC1	3.4	18.67	–	–
COc1ccc(C(CN(C)C)C2(OC(=O)CCC(=O)NC34CC5CC(C)(CC(C)(C5)C3)C4)CCCCC2)cc1.Cl.Cl (configuration not stated)	3.36	5.6	–	–
CC(C)C[C@H](CNC(=O)CCC(=O)NC12CC3CC(C)(CC(C)(C3)C1)C2)CC(=O)O	3.32	13.2	–	–
CC(C)C[C@H](CNC(=O)CCC(=O)NC[C@@H](CC(=O)O)CC(C)C)CC(=O)O	4	6	–	–
CCC(COC(=O)CC1(CN)CCCCC1)OC(=O)C[C@H](CN)CC(C)C.Cl.Cl (stereo in doubt; 2003325)	–	6.8	4	–
CC(C)C[C@@H](CN)CC(=O)OCCCCCOC(=O)CC1(CN)CCCCC1.Cl.Cl (stereo in doubt; 2003327)	–	–	3.33	20.67
CCC(COC(=O)CC1(CN)CCCCC1)OC(=O)C[C@H](CN)CC(C)C.Cl.Cl (stereo in doubt; 2003415)	–	–	4.4	–
CC(C)C[C@@H](CN)CC(=O)OCCCCCOC(=O)CC1(CN)CCCCC1.Cl.Cl (stereo in doubt; 20030417)	–	–	2.8	13.8
NCC1(CC(=O)O)CCCCC1 [GABAPENTIN]	2.23	13.5	–	–
CC12CC3CC(C)(C1)CC(N)(C3)C2.Cl [MEMANTINE HYDROCHLORIDE]	2.8	10.4	–	–
CC(C)C[C@H](CN)CC(=O)O [PREGABALIN]	3.43	18.86	–	–
COc1ccc(C(CN(C)C)C2(O)CCCCC2)cc1 (configuration not stated) [VENLAFAXINE]	2	22	–	–
